Data as given in patent US5364869A, “Heterocycle-substituted benzyaminopyridine angiotensin II receptor antagonists” (Abbott Laboratories, priority 1993, dated 1994).
One block for each molecule: values may come before it.

How the values were obtained:
angiotensin II receptor = target: T1, angiotensin II receptor (Oryctolagus cuniculus, UniProt P34976); assay: Antagonism of contraction of rabbit aorta (angiotensin II functional assay, isolated rabbit aorta); parameters: species or system rabbit (female New Zealand White); conditions: Schild analysis; for Kb: pA2 = negative logarithm of [A]2
T1 construct: Main abdominal aortas were removed and placed in Krebs-Henseleit buffer; from tissue; host or cells: abdominal aorta rings of female New Zealand White rabbits
T1 sequence (P34976 1-359): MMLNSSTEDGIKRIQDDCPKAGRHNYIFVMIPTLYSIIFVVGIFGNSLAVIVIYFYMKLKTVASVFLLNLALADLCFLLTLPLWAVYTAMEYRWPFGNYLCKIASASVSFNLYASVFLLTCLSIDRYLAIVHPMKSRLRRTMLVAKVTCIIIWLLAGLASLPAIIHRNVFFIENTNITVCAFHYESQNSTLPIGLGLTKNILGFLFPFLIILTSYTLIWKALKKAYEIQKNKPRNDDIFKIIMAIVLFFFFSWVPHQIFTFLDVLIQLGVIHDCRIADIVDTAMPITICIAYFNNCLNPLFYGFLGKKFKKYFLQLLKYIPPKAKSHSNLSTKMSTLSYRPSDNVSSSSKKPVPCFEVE
Description: ANGIOTENSIN II FUNCTIONAL ASSAY
Antagonism of Contraction of Rabbit Aorta
The protocol reported by A. T. Chiu and P. Timmermans (P. C. Wong, et al. Hypertension, 13, 489-497 (1989)) was followed with a few modifications. Female New Zealand White rabbits weighing 2-5 kg were sedated with carbon dioxide and then sacrificed. Main abdominal aortas were removed and placed in Krebs-Henseleit buffer at room temperature.
The tissues were cleaned of extraneous connective tissue, cut into 3 mm rings, and suspended within a 10 mL tissue bath. All dilutions of peptide preparations were made with 0.3% aqueous BSA. The tissues were primed with 55 mM potassium chloride. Tissues were pre-loaded with 1 g of tension. Tension was recorded on a model 7 Grass polygraph using FT03 transducers. At the end of the equilibrium period, a control cumulative concentration-contractile response curve for angiotensin II (A II: 1×10^-10 -10^-8 M) was obtained. The tissue was washed several times until the baseline was reached. Forty five minutes later, test compound (antagonist) was added and the tissue was incubated for 30 minutes. The concentration-response curve for A II was then repeated in the presence of the test compound. One dose of antagonist was tested per tissue only. For single dose shift experiments a dose of 1 mM of test compound was used, for a full pA2 experiment multiple doses were used depending upon the potency of the antagonist.
All responses to the control agonist were calculated as a percentage of the maximum response. These points in duplicate were plotted and analyzed according to standard Schild analysis (H. O. Schild, British J Pharmacology and Chemotherapy, 2, 189-206 (1947). The pA2 values calculated for the compounds of the invention are shown in Table 1. The pA2 value is the negative logarithm of the [A]2 value. [A]2 is the concentration of antagonist which necessitates doubling the agonist concentration in order to achieve the agonist effect which was measured in the absence of antagonist.
The pA2 value, therefore is a measure of the effectiveness of the compound as an antagonist.

[1] = test system: hypertension and congestive heart failure; conditions: background; cited from earlier work
angiotensin II = conditions: background; cited from earlier work
[2] = background; cited from earlier work
[3] = after intravenous administration; due to angiotensin receptor agonist activity; cited from earlier work

- Kb (angiotensin II receptor): 589 nM
Compound: CCCN(Cc1ccc(OC(C(=O)O)c2ccccc2)cc1)c1nc(C)ncc1C(=O)O (stereo not drawn) [Example 1, 4-[N-4-(1-Carboxy-1-phenylmethoxy)benzyl-N-propyl]amino-2-methylpyrimidine-5-carboxylic acid]

Compound: CCOC(=O)[C@H](CCc1ccccc1)N[C@@H](C)C(=O)N1CCC[C@H]1C(=O)O [enalapril]
- clinical efficacy in treating hypertension and congestive heart failure (in words) [1]: have clinical efficacy in treating hypertension and congestive heart failure

Compound: COc1ccc(C[C@H](NC(=O)CC(C)(C)N)C(=O)N[C@@H](Cc2cnc[nH]2)C(=O)N[C@@H](CC2CCCCC2)[C@@H](O)[C@@H](O)CC(C)C)cc1 [enalkiren]
- clinical efficacy in treating hypertension and congestive heart failure (in words) [1]: have clinical efficacy in treating hypertension and congestive heart failure

- Kb (angiotensin II receptor): 0.132 nM
Compound: CCCN(Cc1ccc(-n2cc(Br)cc2-c2nn[nH]n2)cc1)c1ncccc1C(=O)O [Example 4H, 2-{N-Propyl-N-[(1-[3-bromo-5-(1H-tetrazol-5-yl)pyrrole-1-yl]phenyl-4-yl)methyl]amino}pyridine-3-carboxylic acid]

- pA2 (angiotensin II receptor; pA2 = negative logarithm of [A]2, 30 min): 7.53
Compound: CCCN(Cc1ccc2c(Br)c(-c3ccccc3-c3nn[nH]n3)sc2c1)c1ncccc1C(=O)O [Example 3]

Compound: CNCC(=O)N[C@@H](CCCN=C(N)N)C(=O)N[C@H](C(=O)N[C@@H](Cc1ccc(O)cc1)C(=O)N[C@H](C(=O)N[C@@H](Cc1cnc[nH]1)C(=O)N1CCC[C@H]1C(=O)N[C@@H](C)C(=O)O)C(C)C)C(C)C [saralasin, [Sar^1, Ala^8] angiotensin II]
- antagonist of the actions of angiotensin II (in words) (angiotensin II): potent antagonist of the actions of angiotensin II
- oral bioavailability (in words) [2]: very poor oral bioavailability
- initial blood pressure change (in words) [3]: initial increase in blood pressure after intravenous administration

Compound: C[C@H](CS)C(=O)N1CCC[C@H]1C(=O)O [captopril]
- clinical efficacy in treating hypertension and congestive heart failure (in words) [1]: have clinical efficacy in treating hypertension and congestive heart failure
